{"source": "ChEMBL document CHEMBL1158127", "about": "“Bioactive compounds from the gorgonian Briareum polyanthes. Correction of the structures of four asbestinane-type diterpenes” (J Nat Prod, 2006)", "key": {"[1]": {"tested_on": "Plasmodium falciparum", "assay": "Antiplasmodial activity against chloroquine-resistant Plasmodium falciparum W2", "type": "functional, organism-based"}, "[2]": {"tested_on": "Hepatitis C virus", "assay": "Antiviral activity against HCV", "type": "functional, organism-based", "conditions": "Hepacivirus hominis"}, "[3]": {"tested_on": "Hepatitis B virus", "assay": "Antiviral activity against Hepatitis B virus", "type": "functional, organism-based"}, "[4]": {"tested_on": "Influenza A virus H3N2", "assay": "Antiviral activity against Influenza A virus H3N2", "type": "functional, organism-based"}, "[5]": {"tested_on": "Respiratory syncytial virus", "assay": "Antiviral activity against RSV type A", "type": "functional, organism-based"}, "[6]": {"tested_on": "West Nile virus", "assay": "Antiviral activity against West Nile virus", "type": "functional, organism-based"}, "[7]": {"tested_on": "Influenza A virus", "assay": "Antiviral activity against Influenza A virus H1N1", "type": "functional, organism-based"}, "[8]": {"tested_on": "Influenza B virus", "assay": "Antiviral activity against Influenza B virus", "type": "functional, organism-based"}, "[9]": {"tested_on": "Venezuelan equine encephalitis virus", "assay": "Antiviral activity against Venezuelan equine encephalomyelitis virus", "type": "functional, organism-based"}, "[10]": {"tested_on": "Yellow fever virus", "assay": "Antiviral activity against yellow fever virus", "type": "functional, organism-based"}, "[11]": {"tested_on": "Mycobacterium tuberculosis", "assay": "Antituberculosis activity against Mycobacterium tuberculosis H37Rv at 128 ug/mL", "type": "functional"}, "[12]": {"tested_on": "dengue virus type 2", "assay": "Antiviral activity against Dengue virus type 2", "type": "functional, organism-based"}, "[13]": {"tested_on": "Human gammaherpesvirus 4", "assay": "Antiviral activity against Epstein-Barr virus", "type": "functional, organism-based"}, "[14]": {"tested_on": "CCRF-CEM", "assay": "Cytotoxicity against human CCRF-CEM cells", "type": "functional, cell-based"}}, "note": "Active and inactive are the calls of the source. The calls are words filed in the database; no cut-off is given here."}
{"smiles": "CC(=O)O[C@H]1[C@H]2C3CC(=O)CCC[C@]4(C)OC[C@H](C)C(C[C@H]1C)[C@@H]2C4O3", "note": "(stereo partly drawn) [NOR-ASBESTININ A]", "values": [{"measurement": "IC50", "setting": "[1]", "result": 14, "unit": "µg/mL"}, {"measurement": "Activity", "setting": "[2]", "result": "inactive"}, {"measurement": "Activity", "setting": "[3]", "result": "inactive"}, {"measurement": "Activity", "setting": "[4]", "result": "inactive"}, {"measurement": "Activity", "setting": "[5]", "result": "inactive"}, {"measurement": "Activity", "setting": "[6]", "result": "inactive"}, {"measurement": "Activity", "setting": "[7]", "result": "inactive"}, {"measurement": "Activity", "setting": "[8]", "result": "inactive"}, {"measurement": "Activity", "setting": "[9]", "result": "inactive"}, {"measurement": "Activity", "setting": "[10]", "result": "inactive"}, {"measurement": "Activity", "setting": "[11]", "result": "inactive"}, {"measurement": "Activity", "setting": "[12]", "result": "inactive"}]}
{"smiles": "CCCC(=O)O[C@]1(C)CCC2[C@@H]3C4OC(C[C@](C)(O)[C@H](O)CC[C@]4(C)OC(=O)[C@@H]2C)[C@@H]31", "note": "(stereo partly drawn) [BRIARELLIN Q]", "values": [{"measurement": "IC50", "setting": "[1]", "result": 3, "unit": "µg/mL"}, {"measurement": "Activity", "setting": "[11]", "result": 43, "unit": "%"}]}
{"smiles": "C=C1CC2OC3[C@H]4C(C[C@@H](C)[C@@H](OC(C)=O)[C@@H]24)[C@@H](C)CO[C@@]3(C)CC[C@H]1OO", "note": "(stereo partly drawn)", "values": [{"measurement": "IC50", "setting": "[1]", "result": 13, "unit": "µg/mL"}, {"measurement": "Activity", "setting": "[2]", "result": "inactive"}, {"measurement": "Activity", "setting": "[3]", "result": "inactive"}, {"measurement": "Activity", "setting": "[4]", "result": "inactive"}, {"measurement": "Activity", "setting": "[5]", "result": "inactive"}, {"measurement": "Activity", "setting": "[6]", "result": "inactive"}, {"measurement": "Activity", "setting": "[7]", "result": "inactive"}, {"measurement": "Activity", "setting": "[8]", "result": "inactive"}, {"measurement": "Activity", "setting": "[9]", "result": "inactive"}, {"measurement": "Activity", "setting": "[10]", "result": "inactive"}, {"measurement": "Activity", "setting": "[11]", "result": "inactive"}, {"measurement": "Activity", "setting": "[12]", "result": "inactive"}]}
{"smiles": "CO[C@@H]1CC[C@]2(C)OC[C@H](C)C3C[C@@H](C)[C@@H](OC(C)=O)[C@H]4C(C[C@H]1C)OC2[C@@H]34", "note": "(stereo partly drawn)", "values": [{"measurement": "IC50", "setting": "[1]", "result": 16, "unit": "µg/mL"}, {"measurement": "Activity", "setting": "[2]", "result": "inactive"}, {"measurement": "Activity", "setting": "[3]", "result": "inactive"}, {"measurement": "Activity", "setting": "[4]", "result": "inactive"}, {"measurement": "Activity", "setting": "[5]", "result": "inactive"}, {"measurement": "Activity", "setting": "[6]", "result": "inactive"}, {"measurement": "Activity", "setting": "[7]", "result": "inactive"}, {"measurement": "Activity", "setting": "[8]", "result": "inactive"}, {"measurement": "Activity", "setting": "[9]", "result": "inactive"}, {"measurement": "Activity", "setting": "[10]", "result": "inactive"}, {"measurement": "Activity", "setting": "[11]", "result": "inactive"}, {"measurement": "Activity", "setting": "[12]", "result": "inactive"}]}
{"smiles": "CO[C@@H]1CC[C@]2(C)OC[C@H](C)C3C[C@@H](C)[C@@H](OC(C)=O)[C@H]4C(C[C@@]1(C)O)OC2[C@@H]34", "note": "(stereo partly drawn)", "values": [{"measurement": "IC50", "setting": "[1]", "result": "≥ 50", "unit": "µg/mL"}]}
{"smiles": "CC(=O)O[C@H]1[C@H]2C3C[C@](C)(O)C(=O)CC[C@]4(C)OC[C@H](C)C(C[C@H]1C)[C@@H]2C4O3", "note": "(stereo partly drawn)", "values": [{"measurement": "IC50", "setting": "[1]", "result": 18, "unit": "µg/mL"}]}
{"smiles": "CC(=O)O[C@H]1[C@H]2C3/C=C(/C)[C@H](O)CC[C@]4(C)OC[C@H](C)C(C[C@H]1C)[C@@H]2C4O3", "note": "(stereo partly drawn)", "values": [{"measurement": "IC50", "setting": "[1]", "result": 18, "unit": "µg/mL"}, {"measurement": "Activity", "setting": "[2]", "result": "inactive"}, {"measurement": "Activity", "setting": "[3]", "result": "inactive"}, {"measurement": "Activity", "setting": "[4]", "result": "inactive"}, {"measurement": "Activity", "setting": "[5]", "result": "inactive"}, {"measurement": "Activity", "setting": "[6]", "result": "inactive"}, {"measurement": "Activity", "setting": "[7]", "result": "inactive"}, {"measurement": "Activity", "setting": "[8]", "result": "inactive"}, {"measurement": "Activity", "setting": "[9]", "result": "inactive"}, {"measurement": "Activity", "setting": "[10]", "result": "inactive"}, {"measurement": "Activity", "setting": "[11]", "result": "inactive"}, {"measurement": "Activity", "setting": "[12]", "result": "inactive"}]}
{"smiles": "C=C1CC2OC3[C@H]4C(C[C@@H](C)[C@@H](OC(C)=O)[C@@H]24)[C@@H](C)CO[C@@]3(C)CCC1=O", "note": "(stereo partly drawn)", "values": [{"measurement": "IC50", "setting": "[1]", "result": 9, "unit": "µg/mL"}, {"measurement": "Activity", "setting": "[2]", "result": "inactive"}, {"measurement": "Activity", "setting": "[3]", "result": "inactive"}, {"measurement": "Activity", "setting": "[4]", "result": "inactive"}, {"measurement": "Activity", "setting": "[5]", "result": "inactive"}, {"measurement": "Activity", "setting": "[6]", "result": "inactive"}, {"measurement": "Activity", "setting": "[7]", "result": "inactive"}, {"measurement": "IC50", "setting": "[13]", "result": 0.25, "unit": "µg/mL"}, {"measurement": "Activity", "setting": "[8]", "result": "inactive"}, {"measurement": "Activity", "setting": "[9]", "result": "inactive"}, {"measurement": "Activity", "setting": "[10]", "result": "inactive"}, {"measurement": "Activity", "setting": "[11]", "result": "inactive"}, {"measurement": "Activity", "setting": "[12]", "result": "inactive"}]}
{"smiles": "CCCC(=O)O[C@]1(C)CCC2[C@@H]3C4OC(C/C(C)=C\\CC[C@]4(C)OC(=O)[C@@H]2C)[C@@H]31", "note": "(stereo partly drawn) [BRIARELLIN R]", "values": [{"measurement": "IC50", "setting": "[1]", "result": 15, "unit": "µg/mL"}, {"measurement": "Activity", "setting": "[2]", "result": "inactive"}, {"measurement": "Activity", "setting": "[4]", "result": "inactive"}, {"measurement": "Activity", "setting": "[6]", "result": "inactive"}, {"measurement": "Activity", "setting": "[7]", "result": "inactive"}, {"measurement": "Activity", "setting": "[8]", "result": "inactive"}, {"measurement": "Activity", "setting": "[11]", "result": 91, "unit": "%"}, {"measurement": "IC50", "setting": "[14]", "result": 8.9, "unit": "µg/mL"}]}
{"smiles": "C=C1CC2OC3[C@H]4C(C[C@@H](C)[C@@H](OC(C)=O)[C@@H]24)[C@@H](C)CO[C@@]3(C)CC[C@@H]1O", "note": "(stereo partly drawn)", "values": [{"measurement": "IC50", "setting": "[1]", "result": 17, "unit": "µg/mL"}, {"measurement": "Activity", "setting": "[2]", "result": "inactive"}, {"measurement": "Activity", "setting": "[3]", "result": "inactive"}, {"measurement": "Activity", "setting": "[4]", "result": "inactive"}, {"measurement": "Activity", "setting": "[5]", "result": "inactive"}, {"measurement": "Activity", "setting": "[6]", "result": "inactive"}, {"measurement": "Activity", "setting": "[7]", "result": "inactive"}, {"measurement": "Activity", "setting": "[8]", "result": "inactive"}, {"measurement": "Activity", "setting": "[9]", "result": "inactive"}, {"measurement": "Activity", "setting": "[10]", "result": "inactive"}, {"measurement": "Activity", "setting": "[11]", "result": "inactive"}, {"measurement": "Activity", "setting": "[12]", "result": "inactive"}]}
{"smiles": "C=C1CC2OC3[C@H]4C(C[C@@H](C)[C@@H](OC(C)=O)[C@@H]24)[C@@H](C)CO[C@@]3(C)CC[C@H]1O", "note": "(stereo partly drawn)", "values": [{"measurement": "IC50", "setting": "[1]", "result": 13, "unit": "µg/mL"}, {"measurement": "Activity", "setting": "[2]", "result": "inactive"}, {"measurement": "Activity", "setting": "[3]", "result": "inactive"}, {"measurement": "Activity", "setting": "[4]", "result": "inactive"}, {"measurement": "Activity", "setting": "[5]", "result": "inactive"}, {"measurement": "Activity", "setting": "[6]", "result": "inactive"}, {"measurement": "Activity", "setting": "[7]", "result": "inactive"}, {"measurement": "Activity", "setting": "[8]", "result": "inactive"}, {"measurement": "Activity", "setting": "[9]", "result": "inactive"}, {"measurement": "Activity", "setting": "[10]", "result": "inactive"}, {"measurement": "Activity", "setting": "[11]", "result": "inactive"}, {"measurement": "Activity", "setting": "[12]", "result": "inactive"}]}
{"smiles": "CCCC(=O)O[C@]1(C)CCC2[C@@H]3C(OC(CC(C)=O)[C@@H]31)[C@](C)(CCC(=O)O)OC(=O)[C@@H]2C", "note": "(stereo partly drawn)", "values": [{"measurement": "IC50", "setting": "[1]", "result": 20, "unit": "µg/mL"}]}
